Values after ≈ are worked out from the molar mass of the structure shown.
Tests used:
[1] = tested on: Human alphaherpesvirus 3; experiment: In vitro antiviral activity tested against herpesvirus, VZV, OKA strain by plaque reduction assay in human foreskin fibroblasts.; conditions: Human alphaherpesvirus 3, read-out: ED50
[2] = tested on: Human alphaherpesvirus 2; experiment: In vitro antiviral activity against herpesvirus, HSV-2, MS strain by plaque reduction assay in human foreskin fibroblasts; assay type: functional; conditions: read-out: ED50 (the source's name)
[3] = tested on: Human alphaherpesvirus 3; experiment: In vitro antiviral activity against herpesvirus, VZV, Ellen strain by plaque reduction assay in human foreskin fibroblasts.; conditions: Human alphaherpesvirus 3, read-out: ID50
[4] = tested on: Human alphaherpesvirus 1; experiment: Tested for mean day to death of nonsurvivors against HSV-1 infection in mice at 50 mg/kg per day; assay type: functional
[5] = tested on: Human alphaherpesvirus 2; experiment: In vitro antiviral activity against herpesvirus,HSV-2,X-79 strain by plaque reduction assay in human foreskin fibroblasts; assay type: functional; conditions: read-out: ED50 (the source's name)
[6] = tested on: Human alphaherpesvirus 2; experiment: In vitro antiviral activity against herpesvirus,HSV-2,HEET strain by plaque reduction assay in human foreskin fibroblasts; assay type: functional; conditions: read-out: ED50 (the source's name)
[7] = tested on: Human alphaherpesvirus 3; experiment: In vitro antiviral activity against herpesvirus, VZV, OKA strain by plaque reduction assay in human foreskin fibroblasts.; conditions: Human alphaherpesvirus 3, read-out: ID50
[8] = tested on: Human alphaherpesvirus 1; experiment: Number of survivors per number of HSV-1 infected mice treated with 50 mg/kg per day; 0/10; assay type: functional
[9] = tested on: Human alphaherpesvirus 1; experiment: Number of survivors per number of HSV-1 infected mice treated with 12.5 mg/kg per day; 2/10; assay type: functional
[10] = tested on: Human alphaherpesvirus 2; experiment: In vitro antiviral activity against herpesvirus, HSV-2, MS strain by plaque reduction assay in human foreskin fibroblasts.; assay type: functional; conditions: read-out: ID50 (the source's name)
[11] = tested on: Human alphaherpesvirus 1; experiment: Number of survivors per number of HSV-1 infected mice treated with 200 mg/kg per day; 4/10; assay type: functional
[12] = tested on: Human alphaherpesvirus 2; experiment: In vitro antiviral activity against herpesvirus, HSV-2, X-79 strain by plaque reduction assay in human foreskin fibroblasts.; assay type: functional; conditions: read-out: ID50 (the source's name)
[13] = tested on: Human alphaherpesvirus 1; experiment: In vitro antiviral activity against herpesvirus, HSV-1, E-377 strain by plaque reduction assay in human foreskin fibroblasts.; assay type: functional; conditions: read-out: ID50 (the source's name)
[14] = tested on: Human alphaherpesvirus 2; experiment: In vitro antiviral activity against herpesvirus, HSV-2, JEN strain by plaque reduction assay in human foreskin fibroblasts; assay type: functional; conditions: read-out: ED50 (the source's name)
[15] = In vitro antiviral activity against herpesvirus, HSV-HEET strain by plaque reduction assay in human foreskin fibroblasts.; assay type: functional, herpes simplex virus; conditions: Human alphaherpesvirus 1; read-out: ID50 (the source's name)
[16] = In vitro antiviral activity against herpesvirus, HSV-JEN strain by plaque reduction assay in human foreskin fibroblasts.; assay type: functional, herpes simplex virus; conditions: Human alphaherpesvirus 1; read-out: ID50 (the source's name)
[17] = tested on: Human alphaherpesvirus 3; experiment: In vitro antiviral activity tested against herpesvirus, VZV, Ellen strain by plaque reduction assay in human foreskin fibroblasts.; conditions: Human alphaherpesvirus 3, read-out: ED50
[18] = tested on: Raji; experiment: Tested for the inhibition of diffuse early antigen production assayed by immunofluorescent monoclonal antibody.; assay type: functional; conditions: Homo sapiens
[19] = tested on: Human alphaherpesvirus 1; experiment: In vitro antiviral activity against herpesvirus, HSV-1,E-377 strain by plaque reduction assay in human foreskin fibroblasts; assay type: functional; conditions: read-out: ED50 (the source's name)
[20] = tested on: Human alphaherpesvirus 1; experiment: Tested for mean day to death of nonsurvivors against HSV-1 infection in mice at 200 mg/kg per day; assay type: functional
[21] = tested on: Human alphaherpesvirus 1; experiment: Tested for mean day to death of nonsurvivors against HSV-1 infection in mice at 12.5 mg/kg per day; assay type: functional
[22] = organism: Homo sapiens; experiment: The drug concentration was determined to reduce proliferation of human foreskin fibroblasts to 50% of untreated controls in proliferation assay.; assay type: functional; conditions: read-out: ID50 (the source's name)
[23] = tested on: Human immunodeficiency virus 1; experiment: Tested for the determination of percentage toxicity at 1 uM concentrations against HIV-1 in ATH8 Cells; assay type: functional
[24] = tested on: Human immunodeficiency virus 1; experiment: Tested for the determination of percentage toxicity at 100 uM concentrations against HIV-1 in ATH8 Cells; assay type: functional
[25] = tested on: Human immunodeficiency virus 1; experiment: Tested for the determination of percentage protection at 5 uM concentrations against HIV-1 in ATH8 Cells; assay type: functional
[26] = tested on: Human immunodeficiency virus 1; experiment: Tested for the determination of percentage protection at 1 uM concentrations against HIV-1 in ATH8 Cells; assay type: functional
[27] = tested on: Human immunodeficiency virus 1; experiment: Tested for the determination of percentage protection at 100 uM concentrations against HIV-1 in ATH8 Cells; assay type: functional
[28] = tested on: Human immunodeficiency virus 1; experiment: Tested for the determination of percentage toxicity at 20 uM concentrations against HIV-1 in ATH8 Cells; assay type: functional
[29] = tested on: Human immunodeficiency virus 1; experiment: Tested for the determination of percentage protection at 20 uM concentrations against HIV-1 in ATH8 Cells; assay type: functional
[30] = tested on: Human immunodeficiency virus 1; experiment: Tested for the determination of percentage toxicity at 5 uM concentrations against HIV-1 in ATH8 Cells; assay type: functional

In the case of Nc1nc2c(ncn2COCCO)c(=O)[nH]1 [ACYCLOVIR], the EC50 [1] is reported as 3.7 µg/mL (≈ 16.4 µM), the EC50 [2] is reported as 0.09 µg/mL (≈ 0.4 µM) and the IC50 [3] is reported as > 100 µg/mL. It also gave an MDD [4] of 8, an EC50 [5] of 0.1 µg/mL (≈ 0.444 µM) and an EC50 [6] of 0.06 µg/mL (≈ 0.266 µM). The IC50 [7] was > 100 µg/mL, the Survivors / treated [8] was 0 and the Survivors / treated [9] was 2. For the same compound, the IC50 [10] was > 100 µg/mL, the Survivors / treated [11] was 4 and the IC50 [12] was > 100 µg/mL. For the same compound, the IC50 [13] was > 100 µg/mL, the EC50 [14] was 0.07 µg/mL (≈ 0.311 µM) and the IC50 [15] was > 100 µg/mL. The IC50 [16] was > 100 µg/mL, the EC50 [17] was 2.3 µg/mL (≈ 10.2 µM) and the EC50 ([18]; read-out: ED50 (the source's name)) was 3.8 µg/mL (≈ 16.9 µM). The IC50 ([18]; read-out: ID50 (the source's name)) was > 100 µg/mL, the EC50 [19] was 0.08 µg/mL (≈ 0.355 µM) and the MDD [20] was 12.3. For the same compound, the MDD [21] was 7.8 and the IC50 [22] was 165 µg/mL (≈ 733 µM).
Cc1cn([C@H]2C[C@H](N=[N+]=[N-])[C@@H](CO)O2)c(=O)[nH]c1=O [ZIDOVUDINE] gave a Cytotoxicity [23] of 3%, a Cytotoxicity [24] of 54% and a Protection [25] of 96%. It also gave a Protection [26] of 65%, a Protection [27] of 47% and a Cytotoxicity [28] of 54%. For the same compound, the Protection [29] was 65% and the Cytotoxicity [30] was 30%.

From ChEMBL document CHEMBL1124752, “Cyclobut-A and cyclobut-G: broad-spectrum antiviral agents with potential utility for the therapy of AIDS” (J Med Chem, 1990)
